In patent US20180153830A1, “SELECTIVE INHIBITORS OF UNDIFFERENTIATED CELLS” (Yissum Research Development Company of the Hebrew …, priority 2012, published 2018):

Columns and labels:
[1] = tested on: protein synthesis in BJ fibroblasts; assay: 35S-Met metabolic labeling of protein synthesis, fibroblasts; assay type: cell-based, human; details: 12 hours, 20 μM
Protocol: H9 embryonic stem cells were seeded in Matrigel™ pre-coated 6-well tissue culture plates at a density of 2×10^5 cells/well, and cultured using mTeSR1 defined medium. BJ fibroblasts were seeded in 6-well tissue culture plate at the same density, and cultured with DMEM supplemented with 10% FBS, penicillin (50 U/ml) and streptomycin (50 μg/ml). Cells were treated for 12 hours with either 20 μM PluriSIn #1 (isonicotinic acid N′-phenylhydrazide) or with 0.2% DMSO. Cells were then washed with PBS, and replenished with methionine-deficient medium for 1 hour. Metabolic labeling of the cells was then performed for 1 hour with 10 μCi of […] methionine in 1 ml/well, in the presence of 20 μM PluriSIn #1 or 0.2% DMSO. Cells were washed with PBS containing 10 mM methionine, and were then lysed in 0.4 ml of 30% ice-cold trichloroacetic acid (TCA) containing 10 mM methionine for 15 minutes. […] Total protein concentration was determined using a Bradford Protein Assay (Sigma-Aldrich), and the radioactivity measurements were normalized accordingly. […]
The similarity between PSIs and PluriSIn #1 and #6 is consistent with the fact that UPR can lead to translational attenuation. In order to confirm this link, the effect of PluriSIn #1 treatment on protein synthesis was determined. […]

[2] = tested on: undifferentiated stem-like glioma cells (SLGCs); assay: Methylene blue viability, undifferentiated SLGCs; assay type: cell-based; details: up to 100 μM, 72 hours, 2% fetal bovine serum
Protocol: For the high-throughput screens, relative cell number was determined using a CellTiter-Glo® Luminescent Cell Viability Assay as described hereinabove. Otherwise, relative cell numbers were determined by fixating the cells with 0.5% glutardialdehyde and staining with methylene blue dissolved in 0.1 M boric acid (pH 8.5). Color extraction was performed using 0.1 M hydrochloric acid, and the staining (which is proportional to cell number) was quantified by measuring absorbance at a wavelength of 650 nm.
In a second experiment, undifferentiated stem-like glioma cells (SLGCs) were compared with SLGCs differentiated by monolayer adhesion and exposure to 1 μM retinoic acid for one week, in accordance with procedures described by Campos et al. [Clinical Cancer Research 16:2715-2728 (2010)]. Differentiation of SLGCs is associated with a reduction in tumorigenicity [Campos et al., Clinical Cancer Research 16:2715-2728 (2010)].
The differentiated and undifferentiated cells were exposed to PluriSIn #1 at concentrations of up to 100 μM for 72 hours under low (2%) fetal bovine serum conditions. Their viability was then measured using a methylene blue viability assay, as described hereinabove.

O=C(NNc1ccccc1)c1ccncc1 [PluriSIn #1, isonicotinic acid N′-phenylhydrazide]
effect on protein synthesis, differentiated cells (fibroblasts) [1]: no effect | cytotoxicity towards undifferentiated SLGC [2]: highly cytotoxic
